Data set [1] has as its system HEI-OC1 cells.
In data set [2] the test system is HEI-OC1 cells. As to the kind of experiment: Caspase-3/7 Glo assay, cisplatin-induced apoptosis in HEI-OC1 cell line.
In data set [3] the test system is hair cells in zebrafish lateral line neuromasts. In words: Protection against cisplatin-induced hair cell loss in zebrafish lateral lines in vivo. The settings on record: 5-dpf larvae, 5 μM cisplatin.
Data set [4] deals with outer hair cells (OHCs) in mouse cochlear explants. As to the kind of experiment: Protection against cisplatin-induced hair cell loss in neonatal (P3) mouse cochlear explants. In kind it is cell-based. The settings on record: for pIC50: read-out: Mouse Explant IC50; for OHCs protected against cisplatin (For x%): level of protection to which the stated explant IC50 refers; for OHC survival: 24 hr cisplatin co-treatment; for Explant Cisplatin LD50: LD50, unnumbered table.

The test system of data set [5] is hair cells in mouse cochlear explants.
In data set [6] the test system is hair cells in zebrafish lateral line neuromasts. The settings on record: for Zebrafish LD50: 5-dpf larvae. The procedure:
The experiments were performed with 5-dpf larval zebrafish of the *AB wild-type strain. Dose-response studies were performed to find the cisplatin concentration at which most of the hair cells in each neuromast were killed in the absence of a protective compound and at the same DMSO concentration (<0.2%).
Experiments were performed in 24-well plates with 5 fish per well in volumes of 1-2 mL. Fish were incubated with 5 μM and stained with 0.005% DASPEI vital dye for 15 minutes. After two washes with egg water, fish were visualized in an epiflourescence microscope. […] Results were plotted as percent survival of hair cells in the cisplatin-treated fish relative to the untreated fish (FIG. 4A-E).

Data set [7] deals with mouse cochlear explants. The settings on record: cited from earlier work.
For data set [8] the following is noted: cited from earlier work.
The subject of data set [9] is CDK1, 2, 4, 6 and 9. The settings on record: range over the kinases; cited from earlier work.
Data set [10] relates to mouse medulloblastoma neurosphere lines and human neuroblastoma cell lines. As to the kind of experiment: Interference with cisplatin's killing function in tumor cell lines (Cell Titer Glo). In kind it is cell-based. The settings on record: 48 hours, cisplatin 23 μM, compound 3×IC50. The procedure:
FIG. 11 addresses interference with cisplatin's killing function in tumors. Four neurosphere lines derived from mouse medulloblastoma (MB) and two human neuroblastoma (NB) cell lines were tested. HEI-OC1 cell line was tested as controls.
Table 1 lists the top 18 compound hits in the screen in terms of high potency and low toxicity. The top ten compounds were further evaluated by a viability assay (Cell Titer Glo, Promega) in medulloblastoma neurosphere cell lines and neuroblastoma cell lines to test whether they inhibit the ability of cisplatin to kill the tumor cells. The majority had no antagonistic effect on cisplatin's antitumor activity (data not shown) and are therefore safe to use systemically together with cisplatin during chemotherapy to protect against cisplatin-induced hearing loss.

The mark [11] stands for this setting: Mus musculus, HEI-OC1, 22 h, read-out: HEI-OC1 IC50.
Setting [12] is: Mus musculus, 24 h, P3 cochlear explants, 50 μM cisplatin, 24 hrs.
The mark [13] stands for this setting: Cell Titer Glo, compound without cisplatin, 40 μM to 40 nM, 22 hrs.
The mark [14] stands for this setting: P3 cochlear explants, 50 μM cisplatin, 24 hrs.
Where [15] appears, read: read-out: HEI-OC1 IC50, Caspase-3/7 Glo, 50 μM cisplatin, 22 hrs.
Where [16] appears, read: Mus musculus, HEI-OC1, read-out: HEI-OC1 IC50.

pIC50: −log10 of the molar value. Where two headings read alike, the source gives them in different places. Residues, ends and D or L forms follow the SMILES beside them. *: point of attachment. Cbz = O=C(OCc1ccccc1)*; CH2F = FC*

Take `CC(C)COC(=O)c1ccc2[nH]c(O)c(/C=N/c3ccc(S(N)(=O)=O)cc3)c2c1` [Compound 18]: in data set [1] (mouse, 22 h), the “HEI-OC1 LD50” value was greater than 40 µM. Also, in data set [2] (setting [11]), the pIC50 was 5.47.

Regarding `CCCCCC[C@H]1C(=O)OC(C)C(NC(=O)c2cccc(NC=O)c2O)C(=O)O[C@@H](C)C1OC(=O)CC(C)C` (stereo partly drawn) [Compound 5, Antimycin A], the “Zebrafish IC50” value in [3] is on record as “No”. Also, the pIC50 is roughly 5.74 in data set [4] (setting [12]) and 7.40 in data set [2] (setting [11]). Further, the “OHCs protected against cisplatin (For x%)” value (“OHCs protected … (For x%)” for short) in data set [4] is “(For 31%)”. For the same compound, in data set [1] (setting [13]), the “HEI-OC1 LD50” value is greater than 10 µM. Further, in [5] (P3 cochlear explants), the “Mouse Explant LD50” value is less than 4 µM. Besides, in data set [6], the “Zebrafish LD50” value was less than 0.6 µM.

`CCOc1cc2ncc(C#N)c(Nc3ccc(F)c(Cl)c3)c2cc1NC(=O)/C=C/CN(C)C` [Compound 3, Pelitinib]: the “Zebrafish IC50” value in data set [3] was “No”. Besides, the pIC50 in [4] (setting [12]) is roughly 5.22; in data set [2] (setting [11]), 6.22. In data set [4], the “OHCs protected … (For x%)” value is on record as “(For 50%)”. Besides, in data set [1] (mouse, 22 h), the “HEI-OC1 LD50” value is greater than 40 µM. Also, in data set [5] (mouse, 24 h), the “Mouse Explant LD50” value is less than 13 µM. Further, the “Zebrafish LD50” value in data set [6] is less than 27 µM.

In the case of `O=C1C=C2C(=CCOC2O)O1` (stereo not drawn) [Compound 11, Patulin], the pIC50 was 5.05 to 5.52 in [4] (Mus musculus, 24 h) and 6.15 in [2] (setting [11]).

Take `O=c1c2ccccc2[se]n1-c1ccccc1` [Ebselen, 2-phenyl-1,2-benzisoselenazol-3-one, reference compound]: the “potency in protection against cisplatin” value in data set [2] (dose response) was “low potency”.

As to `N.N.[Cl][Pt][Cl]` [cisplatin, reference compound], in data set [5] (50 μM, 24 hrs), the “death of outer hair cells (OHCs)” value is recorded as roughly 40%. In addition, the hair cells killed in data set [6] (5 μM, 20 hrs, no protective compound) was 91%.

For `O=C([O-])c1cc(/N=N/c2ccc(O)c(C(=O)[O-])c2)ccc1O.[Na+].[Na+]` [Compound 2, Olsalazine sodium], in data set [3], the “Zebrafish IC50” value is “No”. The pIC50 in data set [4] (setting [14]) was roughly 4.52; in data set [2] (setting [15]), 5.21. The “OHCs protected … (For x%)” value in data set [4] was “(For 50%)”. For the same compound, in [1] (setting [13]), the “HEI-OC1 LD50” value was greater than 40 µM. The “Mouse Explant LD50” value in data set [5] (P3 cochlear explants) was greater than 30 µM. Also, in [6], the “Zebrafish LD50” value is greater than 30 µM.

For `CN(C)CCOc1ccc(-c2cc(-c3ccc4c(c3)CC/C4=N\O)c(-c3ccncc3)o2)cc1` [Compound 14], in data set [1] (mouse, 22 h), the “HEI-OC1 LD50” value is greater than 10 µM. Also, in data set [2] (setting [11]), the pIC50 is 5.89.

With “Cyanocobalamin (vitamin B12) [Compound 6]”, the pIC50 in data set [4] (setting [14]) was roughly 4.68; in data set [2] (setting [15]), 5.38. Further, the “OHCs protected … (For x%)” value in data set [4] is reported as “(For 53%)”. Moreover, the “HEI-OC1 LD50” value in data set [1] (setting [13]) was greater than 40 µM. The “Mouse Explant LD50” value in [5] (P3 cochlear explants) is greater than 21 µM.

As for `COC(=O)C[C@H](NC(=O)[C@H](C)NC(=O)[C@@H](NC(=O)OCc1ccccc1)C(C)C)C(=O)CF` [zVAD-fmk] (Cbz-Val-Ala-Asp(OMe)-CH2F), in data set [7] (read-out: IC50, inhibition of cisplatin-induced cell death in the mouse cochlea), the pIC50 was 6.70.

For the compound `CN[C@H](C#Cc1c(F)ccc2c1/C(=C/c1[nH]ccc1OC)C(=O)N2)CO` [Compound 15], in data set [1] (mouse, 22 h), the “HEI-OC1 LD50” value is greater than 10 µM. Moreover, the pIC50 in [2] (setting [11]) was 7.00.

With `CC[C@H](CO)Nc1nc(NCc2ccccc2O)c2ncn(C(C)C)c2n1` [Compound 9, Olomoucine II], the “Zebrafish IC50” value in data set [3] is on record as “No”. Also, the “protection against cisplatin-induced hair cell loss in cochlear explants” value in [4] (50 μM cisplatin, 24 hrs) is “protect against cisplatin-induced hair cell loss”. In data set [4], the OHC survival is on record as 100% and the “Explant Cisplatin LD50” value was 3,000 nM. Moreover, in [1] (mouse, 22 h), the “HEI-OC1 LD50” value was greater than 40 µM. In data set [5] (mouse, 24 h), the Explant Cisplatin LD50 is greater than 33000 nM and the “Mouse Explant LD50” value is greater than 33 µM. Also, in [6], the “Zebrafish LD50” value was greater than 50 µM. In data set [2] (setting [11]), the pIC50 was 6.10. Further, the pIC50 in data set [2] (setting [16]) was 6.10.

As to `Sc1nc2ccccc2s1` [Compound 10, 2-Mercapto-benzothiazole], the pIC50 was less than 4.31 in [4] (setting [12]) and 5.15 in [2] (setting [11]). Also, the “HEI-OC1 LD50” value in data set [1] (setting [13]) was greater than 10 µM.

With `O=C(NC1CCNCC1)c1n[nH]cc1NC(=O)c1c(Cl)cccc1Cl` [SJZuo-20, AT7519], the “Explant Cisplatin LD50” value is roughly 25 nM in [4] and less than 1000 nM in data set [5] (mouse, 24 h). Besides, in [8], the “oral bioavailability, F” value is given as less than 1%. In addition, the pIC50 is […] in [9] and 6.42 in [2] (setting [16]).

Regarding `O=C(Nc1n[nH]c2nc(-c3ccc(O)cc3)c(Br)cc12)C1CC1` [Compound 16], in [1] (mouse, 22 h), the “HEI-OC1 LD50” value is greater than 40 µM. For the same compound, in data set [2] (setting [11]), the pIC50 was 6.10.

Turning to `Cc1ncc(-c2ccnc(Nc3ccc(S(C)(=O)=O)cc3)n2)n1C(C)C` [SJZuo-19, AZD5438], the “Explant Cisplatin LD50” value in data set [4] is roughly 25 nM; in [5] (mouse, 24 h), less than 1000 nM. The “oral bioavailability, F” value in data set [8] is 91%.

With `Cc1ccc(C(=O)Cn2c3c(sc2=N)CCCC3)cc1` [Pifithrin-α, reference compound], in data set [7] (20-100 μM), the “damage at protective doses” value was “damage the hair cell stereocillia”. In addition, the “concentrations conferring protection from cisplatin-induced cell death” value in data set [7] (mouse cochlear explants) was 20 to 100 µM. Also, the “concentration for full reduction of caspase-3/7 activity” value in data set [2] (50 μM cisplatin) was found to be 34 µM. Further, the pIC50 in data set [2] (read-out: IC50, reduction of caspase-3/7 activity (caspase-3 cleavage), reference compound, 50 μM cisplatin) was 4.77.

Turning to `COc1cccc(-c2c[nH]c3c(N/N=C/c4ccncc4)ncnc23)c1` [Compound 17], in [1] (mouse, 22 h), the “HEI-OC1 LD50” value was greater than 40 µM. For the same compound, the pIC50 in data set [2] (setting [11]) was 5.68.

For the compound `O=c1cc(CN2CCOCC2)occ1OCCCCCSc1ccnc2cc(C(F)(F)F)ccc12` [Compound 7, EHT1864], the “Zebrafish IC50” value in [3] is given as “No”. Also, the pIC50 in data set [4] (setting [12]) is roughly 5.00; in data set [2] (setting [11]), 5.70. In addition, the “OHCs protected … (For x%)” value in [4] was “(For 58%)”. Moreover, the “HEI-OC1 LD50” value in data set [1] (mouse, 22 h) is greater than 20 µM. Also, the “interference with cisplatin anti-tumor activity” value in [10] is recorded as “no interference in all tumor cell lines (except one for Compound 7)”. Further, in data set [5] (mouse, 24 h), the “Mouse Explant LD50” value was less than 20 µM. Besides, the “Zebrafish LD50” value in [6] was less than 1.0 µM.

As to `OC[C@H]1OC(c2nc3ccccc3[nH]2)[C@H](O)[C@@H]1O` (stereo partly drawn) [Compound 13, D-Ribofuranosyl- benzimidazole], the “Zebrafish IC50” value in data set [3] is reported as “No”. Also, the pIC50 in data set [4] (setting [12]) is roughly 5.10; in [2] (setting [11]), 5.40. Besides, the “OHCs protected … (For x%)” value in data set [4] is “(For 76%)”. Besides, the “HEI-OC1 LD50” value in data set [1] (mouse, 22 h) was greater than 40 µM. Besides, the “Zebrafish LD50” value in data set [6] was greater than 75 µM.

Regarding `Cc1oncc1C(=O)Nc1ccc(C(F)(F)F)cc1` [Compound 1, Leflunomide], the “Zebrafish IC50” value in data set [3] is on record as “No”. Also, the OHC survival in data set [4] worked out at 100%. Further, the “HEI-OC1 LD50” value in data set [1] (mouse, 22 h) is greater than 40 µM. The “Mouse Explant LD50” value in data set [5] (mouse, 24 h) was greater than 50 µM. In addition, the “Zebrafish LD50” value in [6] is greater than 5.0 µM. For the same compound, the pIC50 in data set [2] (setting [11]) is 5.52.

(Values after US11446308B2, “Methods and compositions for the prevention and treatment of hearing loss” (St. Jude Children's Research Hospital, priority 2015, dated 2022).)
